Key:
Format in all cases: functional
[1] = system: Mus musculus; experiment: Surviving fraction of compound on BALB/c mice bearing well established intradermal EMT6 solid tumors was measured by intraperitoneal injection without any treatment.
[2] = system: Mus musculus; experiment: Surviving fraction of compound on BALB/c mice bearing well established intradermal EMT6 solid tumors was measured by intraperitoneal injection on treatment with X-ray.
[3] = system: Mus musculus; experiment: Surviving fraction of compound on BALB/c mice bearing well established intradermal EMT6 solid tumors was measured by intraperitoneal injection on treatment with drug and X-ray.
[4] = system: Mus musculus; experiment: Surviving fraction of compound on BALB/c mice bearing well established intradermal EMT6 solid tumors was measured by intraperitoneal injection on treatment with drug.
[5] = system: Mus musculus; experiment: Surviving fraction of compound on BALB/c mice bearing well established intradermal EMT6 solid tumors was measured by intraperitoneal injection on treatment with X-ray alone.
[6] = system: Mus musculus; experiment: Surviving fraction of compound on BALB/c mice bearing well established intradermal EMT6 solid tumors was measured by intraperitoneal injection on treatment with drug alone.

SMILES | Surviving fraction [1] | Surviving fraction [2] | Surviving fraction [3] | Surviving fraction [4] | Surviving fraction [5] | Surviving fraction [6]
CS(=O)(=O)N(CCCl)N(C(=O)OCc1ccc([N+](=O)[O-])cc1)S(C)(=O)=O | 1 | 0.043 | 0.013 | 0.841 | – | –
COc1cc(COC(=O)N(N(CCCl)S(C)(=O)=O)S(C)(=O)=O)c([N+](=O)[O-])cc1OC | 1 | – | 0.024 | – | 0.043 | 0.856

— ChEMBL document CHEMBL1132604, “Hypoxia-selective nitrobenzyloxycarbonyl derivatives of 1,2-bis(methylsulfonyl)-1-(2-chloroethyl)hydrazines” (1999)
